Tests used:
Type in all cases: functional
U-251 = assay: Growth inhibition of human U251 cells at 10 uM after 48 hrs by sulforhodamine B assay; settings: U-251, 48 h, values are per cent of control
[1] = Growth inhibition of human LOXIMVI cells at 10 uM after 48 hrs by sulforhodamine B assay; settings: LOX IMVI, values are per cent of control
M14 = assay: Growth inhibition of human M14 cells at 10 uM after 48 hrs by sulforhodamine B assay; settings: M14, 48 h, values are per cent of control
MDA-MB-435 = assay: Growth inhibition of human MDA-MB-435 cells at 10 uM after 48 hrs by sulforhodamine B assay; settings: MDA-MB-435, 48 h, values are per cent of control
SK-MEL-2 = assay: Growth inhibition of human SK-MEL-2 cells at 10 uM after 48 hrs by sulforhodamine B assay; settings: SK-MEL-2, 48 h, values are per cent of control
SK-MEL-28 = assay: Growth inhibition of human SK-MEL-28 cells at 10 uM after 48 hrs by sulforhodamine B assay; settings: SK-MEL-28, 48 h, values are per cent of control
SK-MEL-5 = assay: Growth inhibition of human SK-MEL-5 cells at 10 uM after 48 hrs by sulforhodamine B assay; settings: SK-MEL-5, 48 h, values are per cent of control
[2] = Growth inhibition of human UACC62 cells at 10 uM after 48 hrs by sulforhodamine B assay; settings: UACC-62, 48 h, values are per cent of control
[3] = Growth inhibition of human IGROV1 cells at 10 uM after 48 hrs by sulforhodamine B assay; settings: IGROV-1, 48 h, values are per cent of control
[4] = Growth inhibition of human OVCAR4 cells at 10 uM after 48 hrs by sulforhodamine B assay; settings: OVCAR-4, 48 h, values are per cent of control
[5] = Growth inhibition of human OVCAR8 cells at 10 uM after 48 hrs by sulforhodamine B assay; settings: OVCAR-8, 48 h, values are per cent of control
[6] = Growth inhibition of human NCI-ADR-RES cells at 10 uM after 48 hrs by sulforhodamine B assay; settings: values are per cent of control
786-0 = assay: Growth inhibition of human 786-0 cells at 10 uM after 48 hrs by sulforhodamine B assay; settings: 786-0, 48 h, values are per cent of control
ACHN = assay: Growth inhibition of human ACHN cells at 10 uM after 48 hrs by sulforhodamine B assay; settings: values are per cent of control
[7] = Growth inhibition of human Caki1 cells at 10 uM after 48 hrs by sulforhodamine B assay; settings: CAKI-1, 48 h, values are per cent of control
[8] = Growth inhibition of human RXF393 cells at 10 uM after 48 hrs by sulforhodamine B assay; settings: RXF 393, 48 h, values are per cent of control
SN12C = assay: Growth inhibition of human SN12C cells at 10 uM after 48 hrs by sulforhodamine B assay; settings: values are per cent of control
[9] = Growth inhibition of human TK10 cells at 10 uM after 48 hrs by sulforhodamine B assay; settings: TK-10, 48 h, values are per cent of control
[10] = Growth inhibition of human DU145 cells at 10 uM after 48 hrs by sulforhodamine B assay; settings: DU-145, 48 h, values are per cent of control
[11] = Growth inhibition of human Hs 578T cells at 10 uM after 48 hrs by sulforhodamine B assay; settings: values are per cent of control
[12] = Growth inhibition of human BT549 cells at 10 uM after 48 hrs by sulforhodamine B assay; settings: BT-549, 48 h, values are per cent of control
T47D = assay: Growth inhibition of human T47D cells at 10 uM after 48 hrs by sulforhodamine B assay; settings: values are per cent of control
MDA-MB-468 = assay: Growth inhibition of human MDA-MB-468 cells at 10 uM after 48 hrs by sulforhodamine B assay; settings: MDA-MB-468, 48 h, values are per cent of control
SR = assay: Growth inhibition of human SR cells at 10 uM after 48 hrs by sulforhodamine B assay; settings: values are per cent of control
A549 = assay: Growth inhibition of human A549/ATCC cells at 10 uM after 48 hrs by sulforhodamine B assay; settings: A549, 48 h, values are per cent of control
[13] = Growth inhibition of human HOP62 cells at 10 uM after 48 hrs by sulforhodamine B assay; settings: HOP-62, 48 h, values are per cent of control
NCI-H226 = assay: Growth inhibition of human NCI-H226 cells at 10 uM after 48 hrs by sulforhodamine B assay; settings: NCI-H226, 48 h, values are per cent of control
NCI-H23 = assay: Growth inhibition of human NCI-H23 cells at 10 uM after 48 hrs by sulforhodamine B assay; settings: NCI-H23, 48 h, values are per cent of control
NCI-H322M = assay: Growth inhibition of human NCI-H322M cells at 10 uM after 48 hrs by sulforhodamine B assay; settings: values are per cent of control
NCI-H460 = assay: Growth inhibition of human NCI-H460 cells at 10 uM after 48 hrs by sulforhodamine B assay; settings: NCI-H460, 48 h, values are per cent of control
NCI-H522 = assay: Growth inhibition of human NCI-H522 cells at 10 uM after 48 hrs by sulforhodamine B assay; settings: NCI-H522, 48 h, values are per cent of control
[14] = Growth inhibition of human COLO205 cells at 10 uM after 48 hrs by sulforhodamine B assay; settings: COLO 205, 48 h, values are per cent of control
[15] = Growth inhibition of human HCC2998 cells at 10 uM after 48 hrs by sulforhodamine B assay; settings: HCC 2998, 48 h, values are per cent of control
[16] = Growth inhibition of human HCT116 cells at 10 uM after 48 hrs by sulforhodamine B assay; settings: HCT-116, 48 h, values are per cent of control
[17] = Growth inhibition of human HCT15 cells at 10 uM after 48 hrs by sulforhodamine B assay; settings: HCT-15, 48 h, values are per cent of control
[18] = Growth inhibition of human SW620 cells at 10 uM after 48 hrs by sulforhodamine B assay; settings: SW-620, 48 h, values are per cent of control
[19] = Growth inhibition of human SF268 cells at 10 uM after 48 hrs by sulforhodamine B assay; settings: SF-268, 48 h, values are per cent of control
[20] = Growth inhibition of human SF295 cells at 10 uM after 48 hrs by sulforhodamine B assay; settings: SF-295, 48 h, values are per cent of control
[21] = Growth inhibition of human SF539 cells at 10 uM after 48 hrs by sulforhodamine B assay; settings: SF-539, 48 h, values are per cent of control
[22] = Growth inhibition of human SNB19 cells at 10 uM after 48 hrs by sulforhodamine B assay; settings: SNB-19, 48 h, values are per cent of control

COc1ccc(/C(C#N)=C/c2ccc3c(c2)OCCO3)cc1OC
growth, % of control at 10 µM (U-251): 19.9%
growth, % of control at 10 µM [1]: 44.9%
growth, % of control at 10 µM (M14): 19.7%
growth, % of control at 10 µM (MDA-MB-435): -17.6%
growth, % of control at 10 µM (SK-MEL-2): 19.4%
growth, % of control at 10 µM (SK-MEL-28): 61.7%
growth, % of control at 10 µM (SK-MEL-5): 16.8%
growth, % of control at 10 µM [2]: 43.7%
growth, % of control at 10 µM [3]: 49.5%
growth, % of control at 10 µM [4]: 69.3%
growth, % of control at 10 µM [5]: 30.1%
growth, % of control at 10 µM [6]: 24.5%
growth, % of control at 10 µM (786-0): 39.3%
growth, % of control at 10 µM (ACHN): 51.3%
growth, % of control at 10 µM [7]: 17.6%
growth, % of control at 10 µM [8]: 14.9%
growth, % of control at 10 µM (SN12C): 56.7%
growth, % of control at 10 µM [9]: 45.7%
growth, % of control at 10 µM [10]: 20.7%
growth, % of control at 10 µM [11]: 16.3%
growth, % of control at 10 µM [12]: 19.2%
growth, % of control at 10 µM (T47D): 31%
growth, % of control at 10 µM (MDA-MB-468): -11.4%
growth, % of control at 10 µM (SR): 1.8%
growth, % of control at 10 µM (A549): 40%
growth, % of control at 10 µM [13]: 36.9%
growth, % of control at 10 µM (NCI-H226): 71.1%
growth, % of control at 10 µM (NCI-H23): 46.8%
growth, % of control at 10 µM (NCI-H322M): 34.5%
growth, % of control at 10 µM (NCI-H460): 12.4%
growth, % of control at 10 µM (NCI-H522): -30.1%
growth, % of control at 10 µM [14]: -1.3%
growth, % of control at 10 µM [15]: 60.1%
growth, % of control at 10 µM [16]: 22.3%
growth, % of control at 10 µM [17]: 31.6%
growth, % of control at 10 µM [18]: 15.5%
growth, % of control at 10 µM [19]: 53.2%
growth, % of control at 10 µM [20]: -14%
growth, % of control at 10 µM [21]: 5.6%
growth, % of control at 10 µM [22]: 53.2%

COc1ccc(/C=C(\C#N)c2ccc3c(c2)OCO3)c(Cl)c1OC
growth, % of control at 10 µM (U-251): 95.5%
growth, % of control at 10 µM [1]: 77.3%
growth, % of control at 10 µM (M14): 72.4%
growth, % of control at 10 µM (MDA-MB-435): 15.3%
growth, % of control at 10 µM (SK-MEL-2): 80.1%
growth, % of control at 10 µM (SK-MEL-28): 91%
growth, % of control at 10 µM (SK-MEL-5): 85%
growth, % of control at 10 µM [2]: 56.6%
growth, % of control at 10 µM [3]: 77.1%
growth, % of control at 10 µM [4]: 98.6%
growth, % of control at 10 µM [5]: 100%
growth, % of control at 10 µM [6]: 60.5%
growth, % of control at 10 µM (786-0): 84.8%
growth, % of control at 10 µM (ACHN): 92.3%
growth, % of control at 10 µM [7]: 79.3%
growth, % of control at 10 µM [8]: 78.3%
growth, % of control at 10 µM (SN12C): 83.5%
growth, % of control at 10 µM [9]: 87.6%
growth, % of control at 10 µM [10]: 104%
growth, % of control at 10 µM [11]: 81.9%
growth, % of control at 10 µM [12]: 64.1%
growth, % of control at 10 µM (T47D): 65.1%
growth, % of control at 10 µM (MDA-MB-468): 48.8%
growth, % of control at 10 µM (SR): 51.1%
growth, % of control at 10 µM (A549): 84.7%
growth, % of control at 10 µM [13]: 87.2%
growth, % of control at 10 µM (NCI-H226): 85%
growth, % of control at 10 µM (NCI-H23): 85%
growth, % of control at 10 µM (NCI-H322M): 97.8%
growth, % of control at 10 µM (NCI-H460): 92.6%
growth, % of control at 10 µM (NCI-H522): 66%
growth, % of control at 10 µM [14]: 85%
growth, % of control at 10 µM [15]: 76.9%
growth, % of control at 10 µM [16]: 71.4%
growth, % of control at 10 µM [17]: 63.9%
growth, % of control at 10 µM [18]: 62.3%
growth, % of control at 10 µM [19]: 98.2%
growth, % of control at 10 µM [20]: 91.1%
growth, % of control at 10 µM [21]: 91.8%
growth, % of control at 10 µM [22]: 89.6%

Source: ChEMBL document CHEMBL3792365, “Dioxol and dihydrodioxin analogs of 2- and 3-phenylacetonitriles as potent anti-cancer agents with nanomolar activity against a variety of human cancer cells” (2016)
